Laboratory results: ChEMBL document CHEMBL5543175, “Discovery of Selective Proteolysis-Targeting Chimera Degraders Targeting PTP1B as Long-Term Hypoglycemic Agents” (J Med Chem, 2024)
The source made the active and inactive calls. No cut-off for these calls is given here.

Tests used:
[1] = target: T1, Protein cereblon/Tyrosine-protein phosphatase non-receptor type 1 (Homo sapiens, UniProt P18031+Q96SW2); assay: PROTAC activity at PTP1B/CRBN in insulin treated human HepG2 cells assessed as protein degradation at 100 nM incubated for 24 hrs in presence of […] by Western blot analysis; assay type: cell-based
Target sequence in this assay (P18031 whole entry, looked up): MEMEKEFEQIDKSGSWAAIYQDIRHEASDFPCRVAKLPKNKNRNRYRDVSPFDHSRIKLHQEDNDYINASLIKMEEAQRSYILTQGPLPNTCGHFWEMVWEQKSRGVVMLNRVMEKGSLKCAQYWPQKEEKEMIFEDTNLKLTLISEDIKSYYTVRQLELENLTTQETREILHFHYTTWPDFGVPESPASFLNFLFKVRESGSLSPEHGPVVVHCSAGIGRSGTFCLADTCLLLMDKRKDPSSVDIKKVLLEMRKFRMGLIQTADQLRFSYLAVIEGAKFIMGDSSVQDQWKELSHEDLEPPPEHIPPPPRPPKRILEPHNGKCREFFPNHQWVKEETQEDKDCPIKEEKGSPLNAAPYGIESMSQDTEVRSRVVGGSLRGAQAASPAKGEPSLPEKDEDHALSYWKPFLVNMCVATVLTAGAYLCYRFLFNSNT
Target sequence in this assay (Q96SW2 whole entry, looked up): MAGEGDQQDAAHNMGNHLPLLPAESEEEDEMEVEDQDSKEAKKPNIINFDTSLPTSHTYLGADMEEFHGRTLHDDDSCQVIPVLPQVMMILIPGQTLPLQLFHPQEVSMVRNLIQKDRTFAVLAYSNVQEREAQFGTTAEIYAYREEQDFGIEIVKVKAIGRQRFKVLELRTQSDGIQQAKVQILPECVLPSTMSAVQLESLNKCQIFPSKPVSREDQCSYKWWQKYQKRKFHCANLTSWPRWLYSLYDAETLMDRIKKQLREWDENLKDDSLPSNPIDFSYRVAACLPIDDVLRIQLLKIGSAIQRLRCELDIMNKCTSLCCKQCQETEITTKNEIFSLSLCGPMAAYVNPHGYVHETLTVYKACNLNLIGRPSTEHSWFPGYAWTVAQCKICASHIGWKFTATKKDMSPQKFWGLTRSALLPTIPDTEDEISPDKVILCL

[2] = target: T1, Protein cereblon/Tyrosine-protein phosphatase non-receptor type 1; assay: PROTAC activity at PTP1B/CRBN in insulin treated human HepG2 cells assessed as protein degradation at 1 nM incubated for 48 hrs by Western blot analysis relative to control; assay type: cell-based
Target sequence in this assay (P18031 whole entry, looked up): as the sequence (P18031 whole entry, looked up) above
Target sequence in this assay (Q96SW2 whole entry, looked up): as the sequence (Q96SW2 whole entry, looked up) above

[3] = target: Protein cereblon/Tyrosine-protein phosphatase non-receptor type 11 (Homo sapiens) (UniProt Q06124+Q96SW2); assay: PROTAC activity at SHP2/CRBN in insulin treated human HepG2 cells assessed as protein degradation at 250 to 500 nM incubated for 24 hrs by Western blot analysis; assay type: cell-based; conditions: dose 250-500 nM
[4] = test system: HepG2; assay: Hypoglycemic activity in human HepG2 cells assessed as upregulation of IRS-1 expression at 250 to 500 nM incubated for 24 hrs by Western blot analysis; assay type: functional, cell-based; conditions: dose 250-500 nM
[5] = test system: HepG2; assay: Hypoglycemic activity in human HepG2 cells assessed as upregulation of Akt phosphorylation at 250 to 500 nM incubated for 24 hrs by Western blot analysis; assay type: functional, cell-based; conditions: dose 250-500 nM
[6] = test system: Mus musculus; assay: Anti-diabetic activity in KM mouse assessed as reduction in area under the curve of blood glucose measured for 0 to 120 mins at 40 mg/kg single dose by oral glucose tolerance test (oGTT); assay type: functional; design: scale not given: the % may be the effect or the level left; conditions: time 0-120 min
[7] = target: T1, Protein cereblon/Tyrosine-protein phosphatase non-receptor type 1; assay: PROTAC activity at PTP1B/CRBN in insulin treated human HepG2 cells assessed as protein degradation incubated for 48 hrs by Western blot analysis; assay type: cell-based
[8] = target: T1, Protein cereblon/Tyrosine-protein phosphatase non-receptor type 1; assay: PROTAC activity at PTP1B/CRBN in insulin treated human HepG2 cells assessed as protein degradation at 125 nM incubated for 72 hrs by Western blot analysis relative to control; assay type: cell-based
Target sequence in this assay (P18031 whole entry, looked up): as the sequence (P18031 whole entry, looked up) above
Target sequence in this assay (Q96SW2 whole entry, looked up): as the sequence (Q96SW2 whole entry, looked up) above

[9] = test system: Mus musculus; assay: Anti-diabetic activity in KM mouse assessed as reduction in area under the curve of blood glucose measured for 0 to 120 mins at 20 mg/kg single dose by oral glucose tolerance test (oGTT); assay type: functional; design: scale not given: the % may be the effect or the level left; conditions: time 0-120 min
[10] = test system: Mus musculus; assay: Anti-diabetic activity in KM mouse assessed as reduction in blood glucose measured for 0 to 120 mins at 40 mg/kg single dose by oral glucose tolerance test (oGTT) relative to control; assay type: functional; conditions: time 0-120 min
[11] = target: T1, Protein cereblon/Tyrosine-protein phosphatase non-receptor type 1; assay: PROTAC activity at PTP1B/CRBN in insulin treated human HepG2 cells assessed as protein degradation at 50 nM incubated for 48 hrs by Western blot analysis relative to control; assay type: cell-based
Target sequence in this assay (P18031 whole entry, looked up): as the sequence (P18031 whole entry, looked up) above
Target sequence in this assay (Q96SW2 whole entry, looked up): as the sequence (Q96SW2 whole entry, looked up) above

[12] = target: T1, Protein cereblon/Tyrosine-protein phosphatase non-receptor type 1; assay: PROTAC activity at PTP1B/CRBN in insulin treated human HepG2 cells assessed as protein degradation at 25 nM incubated for 48 hrs by Western blot analysis relative to control; assay type: cell-based
Target sequence in this assay (P18031 whole entry, looked up): as the sequence (P18031 whole entry, looked up) above
Target sequence in this assay (Q96SW2 whole entry, looked up): as the sequence (Q96SW2 whole entry, looked up) above

[13] = target: T1, Protein cereblon/Tyrosine-protein phosphatase non-receptor type 1; assay: PROTAC activity at PTP1B/CRBN in insulin treated human HepG2 cells assessed as protein degradation half life at 500 nM by Western blot analysis; assay type: cell-based
Target sequence in this assay (P18031 whole entry, looked up): as the sequence (P18031 whole entry, looked up) above
Target sequence in this assay (Q96SW2 whole entry, looked up): as the sequence (Q96SW2 whole entry, looked up) above

[14] = target: T1, Protein cereblon/Tyrosine-protein phosphatase non-receptor type 1; assay: PROTAC activity at PTP1B/CRBN in insulin treated human HepG2 cells assessed as protein degradation at 1250 nM incubated for 48 hrs by Western blot analysis relative to control; assay type: cell-based
[15] = target: T1, Protein cereblon/Tyrosine-protein phosphatase non-receptor type 1; assay: PROTAC activity at PTP1B/CRBN in insulin treated human HepG2 cells assessed as protein degradation incubated for 72 hrs by Western blot analysis; assay type: cell-based
[16] = target: T1, Protein cereblon/Tyrosine-protein phosphatase non-receptor type 1; assay: PROTAC activity at PTP1B/CRBN in insulin treated human HepG2 cells assessed as protein degradation at 250 to 500 nM incubated for 24 hrs by Western blot analysis; assay type: cell-based; conditions: dose 250-500 nM
[17] = target: T1, Protein cereblon/Tyrosine-protein phosphatase non-receptor type 1; assay: PROTAC activity at PTP1B/CRBN in insulin treated human HepG2 cells assessed as protein degradation at 5000 nM incubated for 48 hrs by Western blot analysis relative to control; assay type: cell-based
[18] = target: Protein cereblon/Tyrosine-protein phosphatase non-receptor type 22 (Homo sapiens) (UniProt Q9Y2R2+Q96SW2); assay: PROTAC activity at LYP/CRBN in insulin treated human HepG2 cells assessed as protein degradation at 250 to 500 nM incubated for 24 hrs by Western blot analysis; assay type: cell-based; conditions: dose 250-500 nM
Chain of Protein cereblon/Tyrosine-protein phosphatase non-receptor type 22 (Homo sapiens) (Q96SW2 whole entry, looked up): as above
Chain of Protein cereblon/Tyrosine-protein phosphatase non-receptor type 22 (Homo sapiens) (Q9Y2R2 whole entry, looked up): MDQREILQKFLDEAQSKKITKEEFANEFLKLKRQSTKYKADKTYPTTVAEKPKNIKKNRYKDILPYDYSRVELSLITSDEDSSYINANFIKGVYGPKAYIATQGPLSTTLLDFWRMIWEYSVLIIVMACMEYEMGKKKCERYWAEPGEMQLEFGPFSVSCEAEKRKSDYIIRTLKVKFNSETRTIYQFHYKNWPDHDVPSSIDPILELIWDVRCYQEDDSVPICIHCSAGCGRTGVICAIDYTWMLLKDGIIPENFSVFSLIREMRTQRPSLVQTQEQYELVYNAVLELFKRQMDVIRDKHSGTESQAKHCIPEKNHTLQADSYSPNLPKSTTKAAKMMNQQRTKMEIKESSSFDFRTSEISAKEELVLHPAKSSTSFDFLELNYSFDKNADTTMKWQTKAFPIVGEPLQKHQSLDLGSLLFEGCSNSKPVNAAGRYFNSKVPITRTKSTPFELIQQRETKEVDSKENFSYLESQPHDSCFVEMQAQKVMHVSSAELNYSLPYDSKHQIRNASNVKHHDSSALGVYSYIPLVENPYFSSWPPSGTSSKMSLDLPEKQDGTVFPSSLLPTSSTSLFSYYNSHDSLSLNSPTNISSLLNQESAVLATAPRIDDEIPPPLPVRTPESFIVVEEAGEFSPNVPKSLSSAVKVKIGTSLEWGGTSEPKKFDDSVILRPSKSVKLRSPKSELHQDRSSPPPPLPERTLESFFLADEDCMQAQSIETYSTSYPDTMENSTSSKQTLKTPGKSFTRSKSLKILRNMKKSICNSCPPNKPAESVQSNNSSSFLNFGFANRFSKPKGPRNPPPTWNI

[19] = target: T1, Protein cereblon/Tyrosine-protein phosphatase non-receptor type 1; assay: PROTAC activity at PTP1B/CRBN in insulin treated human HepG2 cells assessed as protein degradation at 500 nM incubated for 48 hrs by Western blot analysis relative to control; assay type: cell-based
[20] = target: T1, Protein cereblon/Tyrosine-protein phosphatase non-receptor type 1; assay: PROTAC activity at PTP1B/CRBN in insulin treated human HepG2 cells assessed as protein degradation at 1 nM incubated for 72 hrs by Western blot analysis relative to control; assay type: cell-based
[21] = target: T1, Protein cereblon/Tyrosine-protein phosphatase non-receptor type 1; assay: PROTAC activity at PTP1B/CRBN in insulin treated human HepG2 cells assessed as protein degradation at 100 nM incubated for 24 hrs in presence of MG-132 by Western blot analysis; assay type: cell-based
[22] = test system: HepG2; assay: Hypoglycemic activity in human HepG2 cells assessed as upregulation of PI3K expression at 250 to 500 nM incubated for 24 hrs by Western blot analysis; assay type: functional, cell-based; conditions: dose 250-500 nM
[23] = target: Protein cereblon/Tyrosine-protein phosphatase non-receptor type 6 (Homo sapiens) (UniProt P29350+Q96SW2); assay: PROTAC activity at SHP1/CRBN in insulin treated human HepG2 cells assessed as protein degradation at 250 to 500 nM incubated for 24 hrs by Western blot analysis; assay type: cell-based; conditions: dose 250-500 nM
[24] = target: T1, Protein cereblon/Tyrosine-protein phosphatase non-receptor type 1; assay: PROTAC activity at PTP1B/CRBN in insulin treated human HepG2 cells assessed as protein degradation at 125 nM incubated for 48 hrs by Western blot analysis relative to control; assay type: cell-based
[25] = target: T1, Protein cereblon/Tyrosine-protein phosphatase non-receptor type 1; assay: PROTAC activity at PTP1B/CRBN in insulin treated human HepG2 cells assessed as protein degradation at 5 nM incubated for 72 hrs by Western blot analysis relative to control; assay type: cell-based
[26] = target: Protein cereblon/Receptor-type tyrosine-protein phosphatase C (Homo sapiens) (UniProt P08575+Q96SW2); assay: PROTAC activity at CD45/CRBN in insulin treated human HepG2 cells assessed as protein degradation at 250 to 500 nM incubated for 24 hrs by Western blot analysis; assay type: cell-based; conditions: dose 250-500 nM
Chain of Protein cereblon/Receptor-type tyrosine-protein phosphatase C (Homo sapiens) (P08575 whole entry, looked up): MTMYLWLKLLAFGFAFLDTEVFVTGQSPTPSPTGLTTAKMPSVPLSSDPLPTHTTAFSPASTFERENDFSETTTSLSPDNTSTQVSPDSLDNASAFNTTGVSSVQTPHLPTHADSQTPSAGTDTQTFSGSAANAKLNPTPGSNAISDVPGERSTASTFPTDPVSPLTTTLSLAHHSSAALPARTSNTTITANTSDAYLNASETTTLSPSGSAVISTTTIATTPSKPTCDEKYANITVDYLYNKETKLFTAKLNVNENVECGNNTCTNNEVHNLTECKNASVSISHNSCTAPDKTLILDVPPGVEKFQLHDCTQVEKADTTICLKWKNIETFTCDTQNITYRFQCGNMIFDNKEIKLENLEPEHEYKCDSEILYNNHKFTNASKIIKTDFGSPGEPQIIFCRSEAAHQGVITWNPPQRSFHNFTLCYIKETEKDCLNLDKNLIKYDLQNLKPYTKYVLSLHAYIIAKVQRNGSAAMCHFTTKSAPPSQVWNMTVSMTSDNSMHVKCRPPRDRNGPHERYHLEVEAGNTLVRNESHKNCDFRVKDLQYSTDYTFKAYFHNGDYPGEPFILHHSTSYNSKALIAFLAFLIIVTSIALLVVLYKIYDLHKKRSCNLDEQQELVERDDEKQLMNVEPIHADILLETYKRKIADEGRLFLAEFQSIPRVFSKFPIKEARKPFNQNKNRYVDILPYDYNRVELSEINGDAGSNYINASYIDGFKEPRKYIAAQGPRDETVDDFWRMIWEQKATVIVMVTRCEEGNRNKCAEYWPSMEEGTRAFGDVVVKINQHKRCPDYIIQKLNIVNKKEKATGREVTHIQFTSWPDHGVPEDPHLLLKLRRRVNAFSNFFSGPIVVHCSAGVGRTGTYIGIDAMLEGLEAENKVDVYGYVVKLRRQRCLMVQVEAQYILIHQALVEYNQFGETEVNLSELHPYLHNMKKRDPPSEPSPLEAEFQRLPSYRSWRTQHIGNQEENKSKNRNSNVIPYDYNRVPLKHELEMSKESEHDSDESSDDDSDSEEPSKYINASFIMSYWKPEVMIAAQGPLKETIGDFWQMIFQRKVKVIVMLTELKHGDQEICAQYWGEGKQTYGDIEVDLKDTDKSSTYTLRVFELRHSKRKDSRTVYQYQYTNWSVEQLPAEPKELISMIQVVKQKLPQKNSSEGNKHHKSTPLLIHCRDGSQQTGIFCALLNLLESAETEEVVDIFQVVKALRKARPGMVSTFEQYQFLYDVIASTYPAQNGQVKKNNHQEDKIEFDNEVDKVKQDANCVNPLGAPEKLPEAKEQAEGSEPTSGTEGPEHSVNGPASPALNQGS
Chain of Protein cereblon/Receptor-type tyrosine-protein phosphatase C (Homo sapiens) (Q96SW2 whole entry, looked up): as the sequence (Q96SW2 whole entry, looked up) above

[27] = target: T1, Protein cereblon/Tyrosine-protein phosphatase non-receptor type 1; assay: PROTAC activity at PTP1B/CRBN in insulin treated human HepG2 cells assessed as protein degradation at 1250 nM incubated for 72 hrs by Western blot analysis relative to control; assay type: cell-based
[28] = target: T1, Protein cereblon/Tyrosine-protein phosphatase non-receptor type 1; assay: PROTAC activity at PTP1B/CRBN in insulin treated human HepG2 cells assessed as protein degradation at 625 nM incubated for 48 hrs by Western blot analysis relative to control; assay type: cell-based
[29] = target: T1, Protein cereblon/Tyrosine-protein phosphatase non-receptor type 1; assay: PROTAC activity at PTP1B/CRBN in insulin treated human HepG2 cells assessed as protein degradation at 100 nM incubated for 24 hrs in presence of pomalidomide by Western blot analysis; assay type: cell-based
[30] = test system: Mus musculus; assay: Anti-diabetic activity in KM mouse assessed as reduction in area under the curve of blood glucose measured for 0 to 120 mins at 10 mg/kg single dose by oral glucose tolerance test (oGTT); assay type: functional; design: scale not given: the % may be the effect or the level left; conditions: time 0-120 min
[31] = target: T1, Protein cereblon/Tyrosine-protein phosphatase non-receptor type 1; assay: PROTAC activity at PTP1B/CRBN in insulin treated human HepG2 cells assessed as protein degradation at 625 nM incubated for 72 hrs by Western blot analysis relative to control; assay type: cell-based
[32] = target: T1, Protein cereblon/Tyrosine-protein phosphatase non-receptor type 1; assay: PROTAC activity at PTP1B/CRBN in insulin treated human HepG2 cells assessed as protein degradation at 25 nM incubated for 72 hrs by Western blot analysis relative to control; assay type: cell-based
[33] = target: T1, Protein cereblon/Tyrosine-protein phosphatase non-receptor type 1; assay: PROTAC activity at PTP1B/CRBN in insulin treated human HepG2 cells assessed as protein degradation at 5 nM incubated for 48 hrs by Western blot analysis relative to control; assay type: cell-based

| Compound | Activity [2] [%] | Activity [7] | DC50 [7] [nM] | Activity [8] [%] | inhibition in vivo at 40 mg/kg [10] [%] | Activity [11] [%] | Activity [12] [%] | Activity [14] [%] | Activity [15] | DC50 [15] [nM] | Activity [17] [%] | Activity [19] [%] | Activity [20] [%] | Activity [24] [%] | Activity [25] [%] | Activity [27] [%] | Activity [28] [%] | Activity [31] [%] | Activity [32] [%] | Activity [33] [%] | other results |
| --- | --- | --- | --- | --- | --- | --- | --- | --- | --- | --- | --- | --- | --- | --- | --- | --- | --- | --- | --- | --- | --- |
| CC1(C)CC[C@]2(C(=O)NCCCCCCOCCOCCOCCOCCCCCC(=O)Nc3cccc4c3C(=O)N(C3CCC(=O)NC3=O)C4=O)CC[C@]3(C)C(=CC[C@@H]4[C@@]5(C)CC[C@H](O)C(C)(C)[C@@H]5CC[C@]43C)[C@@H]2C1 (stereo not given in full) | 8 | Dose-Dependent Effect | 200 | 58 | 29 | 20 | 51 | 71 | Dose-Dependent Effect | 50 | 20 | 27 | < 5 | 46 | 40 | 48 | 43 | 43 | 58 | 51 | Activity [1]: inactive; Activity [3]: inactive; Activity [4]: Active; Activity [5]: Active; Activity [6]: 21.8%; Activity [9]: 14.8%; T1/2 [13]: 4 h; Activity [16]: 100%; Activity [18]: inactive; Activity [21]: inactive; Activity [22]: Active; Activity [23]: inactive; Activity [26]: inactive; Activity [29]: Active; Activity [30]: 8.6% |
| C[C@H]1[C@H](C)CC[C@]2(C(=O)NCCCCCCOCCOCCOCC(=O)Nc3cccc4c3C(=O)N(C3CCC(=O)NC3=O)C4=O)CC[C@]3(C)C(=CC[C@@H]4[C@@]5(C)CC[C@H](O)C(C)(C)[C@@H]5CC[C@]43C)[C@H]12 (stereo not given in full) | 8 | Dose-Dependent Effect | 250 | 55 | 18.3 | 46 | 33 | 77 | Dose-Dependent Effect | 40 | < 5 | 53 | 33 | 17 | 57 | 56 | 21 | 49 | 50 | 83 | – |
| C[C@H]1[C@H](C)CC[C@]2(C(=O)NCCCOCCOCCOCCCNc3cccc4c3C(=O)N(C3CCC(=O)NC3=O)C4=O)CC[C@]3(C)C(=CC[C@@H]4[C@@]5(C)CC[C@H](O)C(C)(C)[C@@H]5CC[C@]43C)[C@H]12 (stereo not given in full) | – | – | – | – | 15.3 | 51 | – | – | – | – | 36 | 29 | – | – | – | – | – | – | – | 37 | – |
